Measured values: ChEMBL document CHEMBL1201862, “PubChem BioAssay data set” (2004)
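96-well plates; 48 h exposure; 5 concentrations. Endpoints by linear interpolation between flanking doses. Not reached: highest tested concentration assigned. Here, GI50 denotes the concentration required for 50% inhibition of growth.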 Active and inactive are the calls of the source. Cut-off read from the data, not from the text of the source: active = GI50 up to about 1.1 µM and inactive = higher.

Columns and labels:
Assay in all cases: NCI anticancer screen, dose series, 48 h
SN12C = tested on: SN12C
BT-549 = tested on: BT-549
OVCAR-5 = tested on: OVCAR-5
DU-145 = tested on: DU-145
OVCAR-3 = tested on: OVCAR-3
NCI-H460 = tested on: NCI-H460
SF-268 = tested on: SF-268
U-251 = tested on: U-251
T47D = tested on: T47D
786-0 = tested on: 786-0
NCI-H226 = tested on: NCI-H226
Hs-578T = tested on: Hs-578T
K562 = tested on: K562
CAKI-1 = tested on: CAKI-1
CCRF-CEM = tested on: CCRF-CEM
A549 = tested on: A549
IGROV-1 = tested on: IGROV-1
TK-10 = tested on: TK-10
RXF 393 = tested on: RXF 393

Measured: GI50

C=C1C(=O)OC2C1CCC(=C)C1CC(O)C(=C)C12 (stereo not given)
inactive: SN12C 16.2 µM | BT-549 15.3 µM | OVCAR-5 11.5 µM | DU-145 15 µM | OVCAR-3 13.3 µM | NCI-H460 18 µM | SF-268 15.4 µM | U-251 23.3 µM | T47D 20.7 µM | 786-0 5.5 µM | NCI-H226 27.1 µM | Hs-578T 36.9 µM | K562 5.09 µM | CAKI-1 4.28 µM | CCRF-CEM 2.21 µM | A549 23.8 µM | IGROV-1 14 µM | TK-10 8.02 µM | RXF 393 13.1 µM

O=c1c(Cc2ccccc2Cc2c(O)oc3ccccc3c2=O)c(O)oc2ccccc12
inactive: SN12C > 100 µM | BT-549 > 100 µM | OVCAR-5 > 100 µM | DU-145 > 100 µM | OVCAR-3 > 100 µM | NCI-H460 > 100 µM | SF-268 > 100 µM | U-251 > 100 µM | T47D > 100 µM | 786-0 > 100 µM | NCI-H226 > 100 µM | Hs-578T > 100 µM | K562 > 100 µM | CAKI-1 > 100 µM | CCRF-CEM > 100 µM | A549 > 100 µM | IGROV-1 > 100 µM | TK-10 > 100 µM | RXF 393 > 100 µM

C[n+]1c(-c2ccc(/C=N/NC(=O)c3ccc(C(=O)N/N=C/c4ccc(-c5cn6ccccc6[n+]5C)cc4)cc3)cc2)cn2ccccc21
inactive: SN12C > 100 µM | BT-549 > 100 µM | OVCAR-5 > 100 µM | DU-145 > 100 µM | OVCAR-3 > 100 µM | NCI-H460 > 100 µM | SF-268 > 100 µM | U-251 > 100 µM | T47D > 100 µM | 786-0 13.9 µM | NCI-H226 > 100 µM | Hs-578T > 100 µM | K562 > 100 µM | CAKI-1 > 72.9 µM | CCRF-CEM > 34.3 µM | A549 > 100 µM | IGROV-1 > 100 µM | TK-10 > 83.4 µM | RXF 393 > 61.9 µM

CC(C)[Si]1(C(C)C)OCC2OC(n3c(C(=O)c4ccccc4)cc(=O)[nH]c3=O)CC2O[Si](C(C)C)(C(C)C)O1 (stereo not given)
inactive: SN12C 2.39 µM | BT-549 4.69 µM | OVCAR-5 3.4 µM | DU-145 11.6 µM | OVCAR-3 2.08 µM | NCI-H460 3.58 µM | SF-268 2.78 µM | U-251 3.15 µM | T47D 4.36 µM | 786-0 3.05 µM | NCI-H226 2.94 µM | Hs-578T 2.26 µM | K562 3.05 µM | CAKI-1 5.53 µM | CCRF-CEM 2.12 µM | A549 7.28 µM | IGROV-1 3.28 µM | TK-10 3.24 µM | RXF 393 2.54 µM

COc1cc(OC)c(-c2cc(=O)c3c(OC)c(OC)c(OC)c(OC)c3o2)cc1OC
inactive: SN12C > 100 µM | BT-549 > 100 µM | OVCAR-5 > 100 µM | DU-145 > 100 µM | OVCAR-3 30.2 µM | NCI-H460 > 100 µM | SF-268 > 100 µM | U-251 64 µM | T47D 8.18 µM | 786-0 > 69.3 µM | NCI-H226 > 100 µM | Hs-578T 32 µM | K562 > 73.1 µM | CAKI-1 36.1 µM | CCRF-CEM > 28.4 µM | A549 > 100 µM | IGROV-1 > 100 µM | TK-10 97.5 µM | RXF 393 12.7 µM

O=C(c1cc(Cl)cc(Cl)c1)N1CCN(C(=O)c2cc(Cl)cc(Cl)c2)C1=S
inactive: SN12C 11.9 µM | BT-549 24.9 µM | OVCAR-5 20.6 µM | DU-145 9.18 µM | OVCAR-3 10.9 µM | NCI-H460 16.6 µM | SF-268 13.1 µM | U-251 13.1 µM | T47D 7.06 µM | 786-0 2.4 µM | NCI-H226 23.7 µM | Hs-578T 24.2 µM | K562 8.39 µM | CAKI-1 11.9 µM | CCRF-CEM 2.25 µM | A549 17.7 µM | IGROV-1 14.1 µM | TK-10 10.7 µM | RXF 393 11.8 µM

CN1CCN(c2nc3c(c(=O)n(C)c(=O)n3C)n2C)CC1
inactive: SN12C > 100 µM | BT-549 > 100 µM | OVCAR-5 > 100 µM | DU-145 > 100 µM | OVCAR-3 > 100 µM | NCI-H460 > 100 µM | SF-268 > 100 µM | U-251 > 100 µM | T47D > 100 µM | 786-0 > 100 µM | NCI-H226 > 100 µM | Hs-578T > 100 µM | K562 > 100 µM | CAKI-1 > 100 µM | CCRF-CEM > 100 µM | A549 > 100 µM | IGROV-1 > 100 µM | TK-10 > 100 µM | RXF 393 > 100 µM

CC(=O)N1C2=CCCC2(C)c2ccccc21 (stereo not given)
inactive: SN12C 70.5 µM | BT-549 > 100 µM | OVCAR-5 > 100 µM | DU-145 > 100 µM | OVCAR-3 37.5 µM | NCI-H460 72.8 µM | SF-268 > 100 µM | U-251 > 100 µM | T47D 79.3 µM | 786-0 > 100 µM | NCI-H226 > 100 µM | Hs-578T > 100 µM | K562 33.8 µM | CAKI-1 > 100 µM | CCRF-CEM > 100 µM | A549 37.7 µM | IGROV-1 63.5 µM | TK-10 > 100 µM | RXF 393 > 100 µM

N#Cc1c(-c2ccccc2)c2c([nH]c1=O)-c1cc([N+](=O)[O-])ccc1CCC2
inactive: SN12C 44.1 µM | BT-549 17.4 µM | OVCAR-5 83.4 µM | DU-145 25.5 µM | OVCAR-3 21.2 µM | NCI-H460 30.4 µM | SF-268 26.6 µM | U-251 33.3 µM | T47D 19.3 µM | 786-0 43.2 µM | NCI-H226 27.1 µM | Hs-578T 68.2 µM | K562 34.1 µM | CAKI-1 41.3 µM | CCRF-CEM 37.6 µM | A549 30.3 µM | IGROV-1 29.9 µM | TK-10 44.4 µM | RXF 393 12.1 µM

CNC(=O)[C@H](Cc1ccccc1)NC(=O)N(CCC#N)CCN(C(=O)N[C@@H](Cc1ccccc1)C(=O)OC)c1ccccc1
inactive: BT-549 > 100 µM | OVCAR-5 > 100 µM | DU-145 > 100 µM | OVCAR-3 > 100 µM | NCI-H460 > 100 µM | SF-268 > 100 µM | U-251 > 100 µM | T47D > 100 µM | 786-0 > 100 µM | NCI-H226 > 100 µM | Hs-578T > 100 µM | K562 > 100 µM | CAKI-1 > 100 µM | CCRF-CEM > 100 µM | A549 > 100 µM | TK-10 > 100 µM | RXF 393 > 100 µM

O=C(CCCCCCCCC(=O)N1C(=O)CC(=O)N(c2ccc(Cl)cc2)C1=S)N1C(=O)CC(=O)N(c2ccc(Cl)cc2)C1=S
inactive: SN12C > 100 µM | BT-549 67 µM | OVCAR-5 > 100 µM | DU-145 > 100 µM | OVCAR-3 51.3 µM | NCI-H460 29.6 µM | SF-268 > 100 µM | U-251 > 100 µM | T47D 33.3 µM | 786-0 67.9 µM | NCI-H226 > 100 µM | Hs-578T > 100 µM | K562 17.5 µM | CAKI-1 > 100 µM | CCRF-CEM 30.9 µM | A549 34.2 µM | TK-10 > 100 µM | RXF 393 > 100 µM

COc1ccc(OC)c(NS(=O)(=O)c2ccc3nc(C)n(NS(=O)(=O)c4cc(OC)ccc4OC)c(=O)c3c2)c1
inactive: SN12C > 100 µM | BT-549 70.1 µM | OVCAR-5 > 100 µM | DU-145 > 100 µM | OVCAR-3 > 100 µM | NCI-H460 82.4 µM | SF-268 > 100 µM | U-251 > 100 µM | T47D > 100 µM | 786-0 > 100 µM | NCI-H226 > 100 µM | Hs-578T > 100 µM | K562 32.6 µM | CAKI-1 > 100 µM | CCRF-CEM 75.7 µM | IGROV-1 > 100 µM | TK-10 > 100 µM | RXF 393 > 100 µM

CCOc1cc(NC(C)=O)ccc1C(=O)NN1C(=O)C(Cl)C1c1ccc(O)c(OC)c1 (stereo not given)
inactive: SN12C 13.3 µM | BT-549 8.83 µM | OVCAR-5 19.1 µM | DU-145 15.6 µM | OVCAR-3 20.2 µM | NCI-H460 16.4 µM | SF-268 14.7 µM | T47D 12.2 µM | 786-0 13.1 µM | NCI-H226 10.2 µM | Hs-578T 16.7 µM | K562 5.11 µM | CAKI-1 16.5 µM | CCRF-CEM 4.67 µM | A549 16.7 µM | IGROV-1 12.8 µM | TK-10 3.08 µM | RXF 393 12 µM

O=C1NC(N2CCCC(CO)C2)=N/C1=C\c1ccc(O)cc1 (stereo not given)
inactive: SN12C > 100 µM | BT-549 > 100 µM | OVCAR-5 > 100 µM | DU-145 > 100 µM | OVCAR-3 > 100 µM | SF-268 > 100 µM | U-251 > 100 µM | T47D 42 µM | 786-0 > 100 µM | NCI-H226 > 100 µM | Hs-578T > 100 µM | K562 > 100 µM | CAKI-1 > 100 µM | CCRF-CEM > 100 µM | A549 > 100 µM | IGROV-1 > 100 µM | TK-10 > 100 µM | RXF 393 > 100 µM
